The kinase profiling compilation of Christmann-Franck et al. (2016)

How the values were obtained:
Assay in all cases: KINOMEscan competition binding
Conditions in all cases: compound 10.0 µM
[1] = biological target: ADCK3 (human) (UniProt Q8NI60)
[2] = biological target: AURKC (human) (UniProt Q9UQB9)
[3] = biological target: BMPR1B (human) (UniProt O00238)
[4] = biological target: BRSK1 (human) (UniProt Q8TDC3)
[5] = biological target: CAMKK1 (human) (UniProt Q8N5S9)
[6] = biological target: CDC42BPB (human) (UniProt Q9Y5S2)
[7] = biological target: CDK17 (human) (UniProt Q00537)
[8] = biological target: CDK18 (human) (UniProt Q07002)
[9] = biological target: CDK4 CCND1 (human) (UniProt P11802+P24385)
[10] = biological target: CSK (human) (UniProt P41240)
[11] = biological target: CaMK1 (human) (UniProt Q14012)
[12] = biological target: EPHB4 (human) (UniProt P54760)
[13] = biological target: FGFR4 (human) (UniProt P22455)
[14] = biological target: GRK4 (human) (UniProt P32298)
[15] = biological target: ICK (human) (UniProt Q9UPZ9)
[16] = biological target: LTK (human) (UniProt P29376)
[17] = biological target: MAP3K2 (human) (UniProt Q9Y2U5)
[18] = biological target: MAP4K1 (human) (UniProt Q92918)
MAP4K1 (human), sequence (Q92918 whole entry, looked up): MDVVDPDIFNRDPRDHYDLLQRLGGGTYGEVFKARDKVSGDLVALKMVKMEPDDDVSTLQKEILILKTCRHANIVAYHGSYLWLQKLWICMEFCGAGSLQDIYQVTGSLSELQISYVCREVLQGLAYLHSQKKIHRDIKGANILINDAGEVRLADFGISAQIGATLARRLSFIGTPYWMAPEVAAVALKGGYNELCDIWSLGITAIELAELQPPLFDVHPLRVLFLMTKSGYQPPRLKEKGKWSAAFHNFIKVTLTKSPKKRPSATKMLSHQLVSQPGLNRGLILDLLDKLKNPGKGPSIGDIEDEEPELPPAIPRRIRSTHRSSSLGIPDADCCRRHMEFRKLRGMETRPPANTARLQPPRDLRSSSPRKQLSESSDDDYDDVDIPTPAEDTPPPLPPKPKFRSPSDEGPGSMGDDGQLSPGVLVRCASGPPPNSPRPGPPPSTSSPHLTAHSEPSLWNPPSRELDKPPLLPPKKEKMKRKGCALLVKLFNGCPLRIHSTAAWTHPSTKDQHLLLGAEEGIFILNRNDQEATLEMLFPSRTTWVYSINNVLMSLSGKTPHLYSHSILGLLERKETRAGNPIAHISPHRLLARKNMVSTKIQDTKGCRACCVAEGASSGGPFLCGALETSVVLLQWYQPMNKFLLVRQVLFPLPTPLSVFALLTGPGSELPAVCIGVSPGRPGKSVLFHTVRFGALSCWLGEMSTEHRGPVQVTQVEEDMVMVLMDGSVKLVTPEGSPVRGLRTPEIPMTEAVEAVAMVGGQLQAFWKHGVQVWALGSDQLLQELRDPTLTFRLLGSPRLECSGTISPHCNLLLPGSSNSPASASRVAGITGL

[19] = biological target: MAPK10 (human) (UniProt P53779)
[20] = biological target: MAPK15 (human) (UniProt Q8TD08)
[21] = biological target: MAPK3 (human) (UniProt P27361)
[22] = biological target: MARK1 (human) (UniProt Q9P0L2)
[23] = system: MET (human), P08581 [Y1235D]
[24] = biological target: MYO3A (human) (UniProt Q8NEV4)
[25] = biological target: NEK11 (human) (UniProt Q8NG66)
[26] = biological target: NEK7 (human) (UniProt Q8TDX7)
[27] = biological target: NTRK1 (human) (UniProt P04629)
[28] = biological target: PAK6 (human) (UniProt Q9NQU5)
[29] = biological target: PKN3 (M.tuberculosis) (UniProt Q6P5Z2)
PKN3 (M.tuberculosis), sequence (Q6P5Z2 whole entry, looked up): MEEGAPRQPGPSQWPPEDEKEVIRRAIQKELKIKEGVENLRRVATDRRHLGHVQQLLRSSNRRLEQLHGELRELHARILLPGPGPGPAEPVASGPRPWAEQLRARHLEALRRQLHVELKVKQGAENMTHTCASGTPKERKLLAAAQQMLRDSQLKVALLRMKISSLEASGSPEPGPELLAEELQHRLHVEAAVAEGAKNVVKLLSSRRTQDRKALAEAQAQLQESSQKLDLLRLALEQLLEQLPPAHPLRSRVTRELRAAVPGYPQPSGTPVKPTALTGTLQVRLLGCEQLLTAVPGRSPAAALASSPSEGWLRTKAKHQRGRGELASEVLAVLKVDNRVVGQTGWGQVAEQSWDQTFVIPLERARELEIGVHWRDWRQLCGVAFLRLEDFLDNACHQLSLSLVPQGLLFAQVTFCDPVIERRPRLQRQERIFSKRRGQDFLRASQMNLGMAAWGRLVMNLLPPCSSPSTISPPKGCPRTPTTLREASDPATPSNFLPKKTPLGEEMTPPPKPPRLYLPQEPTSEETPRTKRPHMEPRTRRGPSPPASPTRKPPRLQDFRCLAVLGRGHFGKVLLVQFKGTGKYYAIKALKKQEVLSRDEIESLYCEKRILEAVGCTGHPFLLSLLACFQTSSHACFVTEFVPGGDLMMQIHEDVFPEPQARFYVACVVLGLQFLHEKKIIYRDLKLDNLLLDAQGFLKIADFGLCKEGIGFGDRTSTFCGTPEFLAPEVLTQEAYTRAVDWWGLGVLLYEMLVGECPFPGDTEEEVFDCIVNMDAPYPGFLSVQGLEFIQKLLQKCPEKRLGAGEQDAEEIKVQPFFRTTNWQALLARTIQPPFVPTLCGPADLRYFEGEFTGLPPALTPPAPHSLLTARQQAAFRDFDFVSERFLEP

[30] = biological target: PRKD2 (human) (UniProt Q9BZL6)
[31] = biological target: PRKG1 (human) (UniProt Q13976)
[32] = system: RET (human), P07949 [M918T]
RET (human), P07949 [M918T], sequence (P07949 whole entry M918T, looked up): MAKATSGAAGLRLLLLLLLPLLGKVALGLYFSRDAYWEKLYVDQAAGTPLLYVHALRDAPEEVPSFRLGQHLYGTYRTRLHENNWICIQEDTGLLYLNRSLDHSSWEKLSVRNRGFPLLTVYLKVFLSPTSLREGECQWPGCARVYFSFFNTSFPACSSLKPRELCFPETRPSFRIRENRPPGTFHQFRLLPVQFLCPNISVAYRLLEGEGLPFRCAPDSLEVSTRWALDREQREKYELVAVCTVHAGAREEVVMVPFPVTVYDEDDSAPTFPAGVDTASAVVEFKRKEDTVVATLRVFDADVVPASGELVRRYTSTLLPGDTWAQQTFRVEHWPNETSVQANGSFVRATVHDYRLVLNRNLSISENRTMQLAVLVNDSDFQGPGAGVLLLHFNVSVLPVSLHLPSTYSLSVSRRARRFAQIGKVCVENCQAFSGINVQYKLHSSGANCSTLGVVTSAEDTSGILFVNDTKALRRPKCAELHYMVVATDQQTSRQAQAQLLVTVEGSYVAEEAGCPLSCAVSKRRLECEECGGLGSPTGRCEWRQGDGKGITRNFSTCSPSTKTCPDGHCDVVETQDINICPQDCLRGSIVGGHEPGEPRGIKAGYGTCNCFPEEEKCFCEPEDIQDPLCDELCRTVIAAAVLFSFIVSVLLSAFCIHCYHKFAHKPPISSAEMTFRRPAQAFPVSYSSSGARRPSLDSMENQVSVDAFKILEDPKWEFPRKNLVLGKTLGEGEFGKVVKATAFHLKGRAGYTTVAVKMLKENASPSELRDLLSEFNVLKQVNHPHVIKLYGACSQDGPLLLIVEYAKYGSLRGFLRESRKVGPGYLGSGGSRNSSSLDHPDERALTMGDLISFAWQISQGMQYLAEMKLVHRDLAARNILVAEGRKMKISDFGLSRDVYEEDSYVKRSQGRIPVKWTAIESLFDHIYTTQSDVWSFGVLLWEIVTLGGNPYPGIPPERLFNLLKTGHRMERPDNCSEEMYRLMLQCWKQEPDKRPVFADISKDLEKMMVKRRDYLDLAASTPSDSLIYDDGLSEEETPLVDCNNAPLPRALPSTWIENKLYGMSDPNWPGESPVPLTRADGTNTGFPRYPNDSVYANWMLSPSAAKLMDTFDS

[33] = biological target: ROCK1 (human) (UniProt Q13464)
[34] = biological target: RPS6KA1 KD1 (human) (UniProt Q15418)
[35] = biological target: RPS6KA5 KD1 (human) (UniProt O75582)
[36] = biological target: SRPK1 (human) (UniProt Q96SB4)
[37] = biological target: TBK1 (human) (UniProt Q9UHD2)
[38] = biological target: TEK (human) (UniProt Q02763)
[39] = biological target: TLK1 (human) (UniProt Q9UKI8)
[40] = biological target: TNK1 (human) (UniProt Q13470)
TNK1 (human), sequence (Q13470 whole entry, looked up): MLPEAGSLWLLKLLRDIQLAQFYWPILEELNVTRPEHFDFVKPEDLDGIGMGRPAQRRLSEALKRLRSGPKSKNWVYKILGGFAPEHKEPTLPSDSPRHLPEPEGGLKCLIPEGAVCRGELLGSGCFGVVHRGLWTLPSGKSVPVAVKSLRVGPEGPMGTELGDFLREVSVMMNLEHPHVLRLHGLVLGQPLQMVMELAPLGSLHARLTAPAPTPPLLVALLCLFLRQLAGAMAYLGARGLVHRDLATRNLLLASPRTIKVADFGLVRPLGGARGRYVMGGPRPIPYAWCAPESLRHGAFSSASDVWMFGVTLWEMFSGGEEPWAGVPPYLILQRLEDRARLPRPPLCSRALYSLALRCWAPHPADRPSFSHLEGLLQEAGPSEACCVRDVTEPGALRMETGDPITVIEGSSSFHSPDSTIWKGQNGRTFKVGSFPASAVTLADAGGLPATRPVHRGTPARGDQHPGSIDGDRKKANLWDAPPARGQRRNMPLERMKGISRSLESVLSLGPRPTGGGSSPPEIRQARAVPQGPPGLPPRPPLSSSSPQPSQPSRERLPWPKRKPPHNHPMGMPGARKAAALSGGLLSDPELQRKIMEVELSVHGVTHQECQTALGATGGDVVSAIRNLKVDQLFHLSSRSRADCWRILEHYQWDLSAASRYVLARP

BRSK1 (human), sequence (Q8TDC3 whole entry, looked up): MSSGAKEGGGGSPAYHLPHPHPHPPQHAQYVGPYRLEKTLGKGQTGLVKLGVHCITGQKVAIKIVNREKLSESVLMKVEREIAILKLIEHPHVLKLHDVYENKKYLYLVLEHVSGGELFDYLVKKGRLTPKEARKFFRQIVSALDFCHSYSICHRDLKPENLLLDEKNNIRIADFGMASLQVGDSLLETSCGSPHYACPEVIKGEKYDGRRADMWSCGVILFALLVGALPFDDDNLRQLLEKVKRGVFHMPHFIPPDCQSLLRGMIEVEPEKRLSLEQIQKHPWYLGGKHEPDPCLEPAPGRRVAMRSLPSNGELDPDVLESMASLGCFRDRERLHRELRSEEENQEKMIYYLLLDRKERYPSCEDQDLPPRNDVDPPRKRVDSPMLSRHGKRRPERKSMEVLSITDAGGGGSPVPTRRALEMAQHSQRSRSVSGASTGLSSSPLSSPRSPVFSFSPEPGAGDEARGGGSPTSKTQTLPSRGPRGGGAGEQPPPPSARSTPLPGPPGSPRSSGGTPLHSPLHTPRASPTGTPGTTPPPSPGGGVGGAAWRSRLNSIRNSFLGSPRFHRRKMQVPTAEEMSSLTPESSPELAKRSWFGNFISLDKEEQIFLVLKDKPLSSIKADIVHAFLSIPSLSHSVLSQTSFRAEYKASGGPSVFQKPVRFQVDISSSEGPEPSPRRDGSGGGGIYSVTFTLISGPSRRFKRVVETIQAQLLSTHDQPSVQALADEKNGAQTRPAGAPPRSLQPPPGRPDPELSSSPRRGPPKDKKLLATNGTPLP
CAMKK1 (human), sequence (Q8N5S9 whole entry, looked up): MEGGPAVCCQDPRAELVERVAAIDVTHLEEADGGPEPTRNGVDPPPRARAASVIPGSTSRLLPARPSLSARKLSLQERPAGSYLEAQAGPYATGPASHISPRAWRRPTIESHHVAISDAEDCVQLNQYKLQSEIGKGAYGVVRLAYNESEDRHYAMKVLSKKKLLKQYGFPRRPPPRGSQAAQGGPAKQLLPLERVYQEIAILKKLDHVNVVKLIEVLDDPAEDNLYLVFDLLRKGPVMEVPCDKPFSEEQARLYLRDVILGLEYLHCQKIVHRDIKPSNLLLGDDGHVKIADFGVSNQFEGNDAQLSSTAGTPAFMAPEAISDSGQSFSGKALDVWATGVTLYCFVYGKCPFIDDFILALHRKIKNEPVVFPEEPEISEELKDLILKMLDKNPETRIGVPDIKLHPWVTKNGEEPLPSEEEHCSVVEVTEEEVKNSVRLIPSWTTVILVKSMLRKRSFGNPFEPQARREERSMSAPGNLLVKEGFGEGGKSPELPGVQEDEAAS

Row | SMILES | kinase still bound, per cent of control [1] | kinase still bound, per cent of control [2] | kinase still bound, per cent of control [3] | kinase still bound, per cent of control [4] | kinase still bound, per cent of control [5] | kinase still bound, per cent of control [6] | kinase still bound, per cent of control [7] | kinase still bound, per cent of control [8] | kinase still bound, per cent of control [9] | kinase still bound, per cent of control [10] | kinase still bound, per cent of control [11] | kinase still bound, per cent of control [12] | kinase still bound, per cent of control [13] | kinase still bound, per cent of control [14] | kinase still bound, per cent of control [15] | kinase still bound, per cent of control [16] | kinase still bound, per cent of control [17] | kinase still bound, per cent of control [18] | kinase still bound, per cent of control [19] | kinase still bound, per cent of control [20] | also measured
1 | O=C(Nc1cccc(Nc2ncc(Br)c(NCCc3cnc[nH]3)n2)c1)N1CCCC1 | 100% | 0% | 0% | 7.6% | 8.8% | 82% | 77% | 100% | 0.25% | 24% | 11% | 78% | 1.8% | 5.6% | 10% | 66% | 0.25% | 13% | 0.1% | 1.8% | kinase still bound, per cent of control [21]: 76%; kinase still bound, per cent of control [22]: 0.45%; kinase still bound, per cent of control [23]: 2.4%; kinase still bound, per cent of control [24]: 28%; kinase still bound, per cent of control [25]: 85%; kinase still bound, per cent of control [26]: 0.5%; kinase still bound, per cent of control [27]: 0.2%; kinase still bound, per cent of control [28]: 11%; kinase still bound, per cent of control [29]: 6.6%; kinase still bound, per cent of control [30]: 1.7%; kinase still bound, per cent of control [31]: 72%; kinase still bound, per cent of control [32]: 0.05%; kinase still bound, per cent of control [33]: 0.6%; kinase still bound, per cent of control [34]: 4.3%; kinase still bound, per cent of control [35]: 57%; kinase still bound, per cent of control [36]: 4.2%; kinase still bound, per cent of control [37]: 0.7%; kinase still bound, per cent of control [38]: 12%; kinase still bound, per cent of control [39]: 37%; kinase still bound, per cent of control [40]: 1.4%
2 | COc1ccc(N(C(=O)Oc2c(C)cccc2C)c2ccnc(Nc3ccc(N4CCN(C)CC4)cc3)n2)c(OC)c1 | 26% | 9.9% | 80% | 68% | 88% | 2.9% | 80% | 100% | 5.4% | 2.5% | 83% | 0% | 7.4% | 7.9% | 100% | 1.2% | 2.2% | 0.25% | 37% | 76% | kinase still bound, per cent of control [21]: 100%; kinase still bound, per cent of control [22]: 24%; kinase still bound, per cent of control [23]: 1.6%; kinase still bound, per cent of control [24]: 69%; kinase still bound, per cent of control [25]: 100%; kinase still bound, per cent of control [26]: 80%; kinase still bound, per cent of control [27]: 78%; kinase still bound, per cent of control [28]: 71%; kinase still bound, per cent of control [29]: 90%; kinase still bound, per cent of control [30]: 6.4%; kinase still bound, per cent of control [31]: 100%; kinase still bound, per cent of control [32]: 0.1%; kinase still bound, per cent of control [33]: 65%; kinase still bound, per cent of control [34]: 58%; kinase still bound, per cent of control [35]: 100%; kinase still bound, per cent of control [36]: 23%; kinase still bound, per cent of control [37]: 74%; kinase still bound, per cent of control [38]: 0.3%; kinase still bound, per cent of control [39]: 45%; kinase still bound, per cent of control [40]: 0%
